This is an account of results in article PMC11859726, “HDAC/σ1R Dual-Ligand as a Targeted Melanoma Therapeutic” (Pharmaceuticals, 2025).

Test [1] deals with T1, σ1R (Cavia porcellus, UniProt Q60492).
T1 construct: using guinea pig brain membranes and appropriate radioligands; from tissue; host or cells: guinea pig brain membranes
Kind of test: σ1R radioligand binding assay ([3H]-(+)-pentazocine). The arrangement: species or system guinea pig.
Experimental: (§3) Radioactivity was determined with a Beckman LS6500 scintillation counter. Inhibition constants (Ki values) were calculated with the EBDA/LIGAND program (Elsevier/Biosoft).

For test [2], the target named is T2, σ2R (Cavia porcellus, UniProt H0V073).
T2 construct: using guinea pig brain membranes and appropriate radioligands; from tissue; host or cells: guinea pig brain membranes
T2 sequence (H0V073 1-176): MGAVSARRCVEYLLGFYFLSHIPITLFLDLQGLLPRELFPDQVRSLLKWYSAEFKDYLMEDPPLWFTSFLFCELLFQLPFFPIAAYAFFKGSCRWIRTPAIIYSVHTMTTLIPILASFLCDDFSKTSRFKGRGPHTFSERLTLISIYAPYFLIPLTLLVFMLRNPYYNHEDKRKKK
Nature of the test: σ2R radioligand binding assay ([3H]-DTG). Further details: species or system guinea pig. As to conditions: guinea pig brain membranes; mean ± SD; read-out: Ki σ2R.
Experimental: as §3

Test [3] concerns UM 92-1 cells. Kind of test: Cell proliferation, UM 92-1 cells. The test is classed as cell-based, human. As to conditions: UM 92-1 cells; 3c 30 and 100 nM; pentazocine 2 μM; AC927 2 μM; Figure 3a. As to the method: (§1) Cells were seeded in 96-well plates at a cell-specific density, following quantification of cell numbers on counting chambers after trypsinization and staining with trypan blue. After seeding (72 h), at a cell confluence of ~50%, the medium was removed, and treatments were started with fresh media. Treatments, carried out in quadruplicate, lasted for 48 h. Then, the cells were fixed with 4% paraformaldehyde in PBS for 20 min and, after washing, stained with either 1% crystal violet in water or an acridine orange solution (50 µg/mL) for an additional 20 min. At the end of the incubations, cells were washed (3 times) with 100 μL/well of bidistilled water. Finally, for crystal violet assays, 100 μL of 10% acetic acid was added to each well, and the absorbance (λ = 590 nm) was measured with a Synergy HTX Bioteck spectrophotometer (BioSPX, Beersel, Belgium). For acridine orange assays, cell staining was evaluated by measuring the fluorescence (excitation 485/20 nm, emission 528/20 nm) with the Synergy HTX Bioteck reader.

In test [4] the test system is A375 cells. Kind of test: Cell proliferation, CM A375 cells. The test is classed as cell-based, human. As to conditions: CM A375 cells; 3c 90 and 200 nM; pentazocine 2 μM; AC927 2 μM; Figure 3b. The method, then:
as §1

Test [5] has as its system endothelial C166 cells. Nature of the test: Tube formation assay, VEGF-A-stimulated endothelial cells. The test is classed as cell-based, mouse. As to conditions: for effect on VEGF-A-stimulated angiogenesis (tube lengths, mesh areas, node numbers; words): 5 µM, 3 h, VEGF-A 80 ng/mL. The method, then:
The tube formation assay using mouse endothelial […] cells was analyzed employing Matrigel (BD, Bedford, MA, USA), as previously described. Briefly, 96-well plates coated with Matrigel (50 μL/well) were filled with 100 μL medium/well and maintained overnight. Endothelial cells were seeded at 2.5 × 10^4 cells/well and incubated (for 3 h) with VEGF-A (80 ng/mL), in the presence of the indicated treatments. Then, capillary-like structures were imaged (×4 magnification) with a CCD camera connected with an inverted EVOS microscope. Finally, ImageJ software (NIH, Bethesda, MD, USA) was employed to quantify tube formations.

The test system of test [6] is UM 92-1 cells. Kind of test: Tumor cell spreading assay, 92-1 cells. The test is classed as cell-based, human. Particulars: 1 h; for cells flat, with protrusions, Exp 1 (%) / cells flat, with protrusions, Exp 2 (%) / cells flat, with protrusions, Exp 3 (%) / rounded cells, Exp 1 (%) / rounded cells, Exp 2 (%) / rounded cells, Exp 3 (%): 92-1, % of total cell population; for inhibition of cell spreading: UM 92-1 cells, from 100 nM. As to the method:
(§2) Adherent 92-1 and MCF-7 cells were harvested using 0.05% Trypsin-EDTA and plated in 6-well plates. After 1 h incubations with the indicated treatments, the number of cells that formed, or not, distinct protrusions (lamellipodia, filopodia) were scored with an inverted microscope (20×, EVOS cell imaging system, Thermo Fisher, Waltham, MA, USA).

The subject of test [7] is MCF7 cells. Kind of test: Tumor cell spreading assay, MCF7 cells. The test is classed as cell-based, human. Particulars: 100 nM, 1 h; for inhibition of cell spreading: MCF7 cells (low σ1R); for cells flat, with protrusions, Exp 1 (%) / cells flat, with protrusions, Exp 2 (%) / cells flat, with protrusions, Exp 3 (%) / rounded cells, Exp 1 (%) / rounded cells, Exp 2 (%) / rounded cells, Exp 3 (%): MCF-7, % of total cell population. As to the method:
as §2

T1 sequence (Q60492 whole entry): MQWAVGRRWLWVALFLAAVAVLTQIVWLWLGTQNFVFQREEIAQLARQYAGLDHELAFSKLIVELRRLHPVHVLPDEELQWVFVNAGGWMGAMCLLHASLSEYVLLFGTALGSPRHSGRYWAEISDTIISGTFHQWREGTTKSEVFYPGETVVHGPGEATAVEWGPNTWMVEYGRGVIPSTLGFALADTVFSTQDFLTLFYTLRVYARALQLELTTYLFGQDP

Take `COC(=O)/C=C/c1ccc(CN2CCC(O)(c3ccc(Cl)cc3)CC2)cc1` [3c, Metil-(E)-3-(4-{[4-(4-clorofenil)-4-idrossipiperidin-1-il]methyl}phenyl)acrylate]: in test [1], the Ki – broadly, the equilibrium dissociation constant of an inhibitor or competing ligand from its target – came to 28 ± 4.4 nM. The Ki in test [2] came to 1330 ± 286 nM. Moreover, the “effect on proliferation” value in test [3] is “loss of activity”. For the same compound, the “effect on proliferation” value in test [4] is “loss of activity”. In test [5], the “effect on VEGF-A-stimulated angiogenesis (tube lengths, mesh areas, node numbers; words)” value is on record as “mimicked the effects of 5c”. In addition, in test [6] (100 nM), the “cells flat, with protrusions, Exp 1 (%)” value is on record as 36,01%; the “cells flat, with protrusions, Exp 2 (%)” value is given as 25,21%; the “cells flat, with protrusions, Exp 3 (%)” value is 33,92%; the “rounded cells, Exp 1 (%)” value is 63,99%. For the same compound, in test [6] (100 nM), the “rounded cells, Exp 2 (%)” value is on record as 74,79% and the “rounded cells, Exp 3 (%)” value was 66,08%. In addition, in test [6] (5 µM), the “cells flat, with protrusions, Exp 1 (%)” value is 45,38%; the “cells flat, with protrusions, Exp 2 (%)” value is 18,28%; the “cells flat, with protrusions, Exp 3 (%)” value is recorded as 39,44%; the “rounded cells, Exp 1 (%)” value is 54,62%. In addition, in test [6] (5 µM), the “rounded cells, Exp 2 (%)” value is 81,72% and the “rounded cells, Exp 3 (%)” value is reported as 60,56%. In addition, the “inhibition of cell spreading” value in test [6] is “significantly suppressed”. Besides, in test [7], the “inhibition of cell spreading” value was “unable to significantly inhibit”; the “cells flat, with protrusions, Exp 1 (%)” value is reported as 49,37%; the “cells flat, with protrusions, Exp 2 (%)” value is recorded as 50,89%; the “cells flat, with protrusions, Exp 3 (%)” value was 46,27%. For the same compound, in test [7], the “rounded cells, Exp 1 (%)” value is 50,63%; the “rounded cells, Exp 2 (%)” value was 49,11%; the “rounded cells, Exp 3 (%)” value was 53,73%.
With `CCCC(CCC)C(=O)O[C@@H](CCCN1CCC(O)(c2ccc(Cl)cc2)CC1)c1ccc(F)cc1` [(-)-1, reference compound], the “antiangiogenic effect in the presence of pentazocine” value in test [5] (5 µM plus σ1R agonist pentazocine 2 μM, combined score) is “partially and equally blocked”. Further, the “antiangiogenic effect in the presence of AC927” value in test [5] (5 µM plus σ2R antagonist AC927 2 μM, combined score) was “partially and equally blocked”. In addition, in test [5], the “effect on VEGF-A-stimulated angiogenesis (tube lengths, mesh areas, node numbers; words)” value is recorded as “significantly inhibited”. Moreover, in test [6] (100 nM), the “cells flat, with protrusions, Exp 1 (%)” value is 33,84%; the “cells flat, with protrusions, Exp 2 (%)” value is listed as 21,33%; the “cells flat, with protrusions, Exp 3 (%)” value is reported as 34,97%; the “rounded cells, Exp 1 (%)” value is on record as 66,16%. In addition, in test [6] (100 nM), the “rounded cells, Exp 2 (%)” value was 78,67% and the “rounded cells, Exp 3 (%)” value is 65,03%. Moreover, in test [6] (5 µM), the “cells flat, with protrusions, Exp 2 (%)” value is 13,49%; the “cells flat, with protrusions, Exp 3 (%)” value is on record as 26,09%; the “rounded cells, Exp 2 (%)” value is on record as 86,51%; the “rounded cells, Exp 3 (%)” value is 73,91%. For the same compound, the “inhibition of cell spreading” value in test [6] is listed as “reduced UM cell spreading with seemingly higher potencies”. In addition, in test [7], the “inhibition of cell spreading” value is reported as “unable to significantly inhibit”; the “cells flat, with protrusions, Exp 1 (%)” value is 45,95%; the “cells flat, with protrusions, Exp 2 (%)” value is listed as 48,03%; the “cells flat, with protrusions, Exp 3 (%)” value is given as 40,28%. Further, in test [7], the “rounded cells, Exp 1 (%)” value is 54,05%; the “rounded cells, Exp 2 (%)” value is listed as 51,97%; the “rounded cells, Exp 3 (%)” value was 59,72%.
For the compound `CC(C)=CCN1CCC2(C)c3cc(O)ccc3CC1C2C` (stereo not drawn) [PTZ, pentazocine, reference compound], the “effect on proliferation” value in test [3] and in test [4] was “did not alter” throughout.
